Target: beta2-adrenergic receptors in A431 (Homo sapiens, UniProt P07550)
Conditions: quiescent A431 cells; epinephrine gradient; responses resembled classical dose-dependent responses
Procedure: Human epidermoid carcinoma A431 cells were obtained from American Type Cell Culture. A431 cells were grown in Dulbecco's modified Eagle's medium (DMEM) supplemented with 10% fetal bovine serum (FBS), 4.5 g/liter glucose, 2 mM glutamine, and antibiotics. For cell culture, ˜4×10^4 cells suspended in 6 μl the medium containing 10% FBS were injected into the chamber, and were cultured at 37° C. under air/5% CO2 until ˜95% confluency was reached (˜1 day). To prevent drying during the culture, the biosensor device was maintained within a petri dish with a cover, and extra cell medium within the dish. The cells were then subject to starvation with the medium without any FBS for overnight. […] The optical system allows one to collect the resonant image of whole sensor at the single cell.
Coming RWG imaging system was used for label-free biosensor cell assays. The imaging system is capable of high resolution imaging, with a spatial resolution of 6 microns in the direction perpendicular to the propagation path of the coupled light, a resolution of about 150 microns in the direction parallel to the propagation path of the coupled light. The cellular responses across the whole sensor were recorded in real time at each pixel (6 microns×6 microns). The cellular responses at defined locations or zones from the inlet to the outlet were averaged to generate location-dependent cellular responses. […]

Sequence of beta2-adrenergic receptors in A431 (P07550 whole entry): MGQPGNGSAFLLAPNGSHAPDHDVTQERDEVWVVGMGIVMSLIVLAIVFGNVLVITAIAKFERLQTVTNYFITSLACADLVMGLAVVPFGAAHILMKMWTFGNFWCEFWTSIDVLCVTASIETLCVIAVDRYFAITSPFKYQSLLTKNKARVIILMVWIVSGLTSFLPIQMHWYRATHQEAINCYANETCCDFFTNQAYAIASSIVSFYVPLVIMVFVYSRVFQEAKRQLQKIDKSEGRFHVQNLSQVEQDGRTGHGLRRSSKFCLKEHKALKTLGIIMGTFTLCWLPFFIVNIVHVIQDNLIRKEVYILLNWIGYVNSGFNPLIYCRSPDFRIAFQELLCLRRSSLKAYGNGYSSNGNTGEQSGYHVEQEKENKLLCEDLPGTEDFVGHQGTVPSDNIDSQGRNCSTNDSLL

In the case of `CNC[C@H](O)c1ccc(O)c(O)c1` [epinephrine], the “chemoattractant determination from location-dependent DMR responses” value is reported as “not a chemoattractant”.
